Measured values published in US6361780B1, “Microporous drug delivery system” (Cardiac Pacemakers, Inc., priority 1998, dated 2002).

Assay: In vitro elution testing of drug-loaded collars (light absorption of solution at 242 nm)
Type: physicochemical
Conditions: dried collar loaded from aqueous solution, then immersed in water
Procedure: FIG. 3 is a graph of radiation absorption (at 242 nm) versus time to measure the elution of dexamethasone acetate.
* denotes the use of an approximation during the calculation of values. […] The soaked collars were then dried for three hours and the delivered for elution testing. Elution testing was done by in vitro testing of the light absorption of a solution into which the collars were placed. The absorption at 242 nm was measured (a wavelength at which dexamethasone acetate strongly absorbs) and the release of the drug noted by increasing levels of absorbance, as shown in FIG. 3. […] Pore size would be estimated by taking the largest linear dimensions within each of the open areas and using that linear value as the largest dimension for that pore.
The rate of release from the collars is intended to be highly tailored to the specific ultimate use intended for the catheter or lead. The leads which may be used include traditional leads such as cardiac leads, but may also include other leads such as leads to organs that produce enzymes and hormones (as in the electrically stimulated treatment for Parkinsonism to accelerate the natural production of L-dopa), in stimulating breathing (in the prevention of SIDS or control of sleep apnea), neurological leads, hearing related leads, tinitus suppression leads, and the like. […]

Structure (SMILES): CC(=O)OCC(=O)[C@@]1(O)[C@H](C)C[C@H]2[C@@H]3CCC4=CC(=O)C=C[C@]4(C)[C@@]3(F)[C@@H](O)C[C@@]21C [dextramethasone acetate, dexamethasone acetate]
- removal of drug from the pores on immersion: removed from the pores over time
